The record followed here is ChEMBL document CHEMBL3600292, “Anti-HIV screening for cell-penetrating peptides using chloroquine and identification of anti-HIV peptides derived from matrix proteins” (Bioorg Med Chem, 2015).

Molecules are shown by their SMILES. Starred links: 1 amine or outer side, 2 acyl side, 3 side chain; linkers in the order of their positions; H or OH if unused. Positions of bridges follow the written chain, without caps; N, C: chain ends. Non-standard residues stand in square brackets, D forms with d. Residues, ends and D or L forms follow the SMILES beside them. Chains are numbered I, II in the order given. Orn = NCCC[C@H](N)C(=O)O; X1 = O=C(C[*:1])[*:2]

Data set [1] can be described thus: Cytotoxicity against human MT4 cells by MTT assay. In kind it is cell-based. In general terms: Tetrazolium dyes change colour on reduction, which living cells bring about.
The nature of data set [2]: Cytotoxicity against human MT4 cells by MTT assay in presence of 5 uM of chloroquine. It is filed as cell-based.
The subject of data set [3] is Human immunodeficiency virus 1. The data set is described as follows: Antiviral activity against T-cell line-tropic HIV1 NL4-3 infected in human MT4 cells assessed as inhibition of virus-induced cytopathogenicity after 5 days by MTT assay in presence of 5 uM of chloroquine. In kind it is functional, organism-based. To be noted: Human immunodeficiency virus 1, NL4-3, MT4, 120 h.

For data set [4], the system named is Human immunodeficiency virus 1. Kind of data set: Antiviral activity against macrophage-tropic HIV1 NL(AD8) infected in human PM1 expressing CCR5 cells assessed as inhibition of virus-induced cytopathogenicity after 5 days by MTT assay in presence of 5 uM of chloroquine. In kind it is functional, organism-based. As to conditions: Human immunodeficiency virus 1, NL(AD8), PM1/CCR5, 120 h. A general note: Protection from cytopathic effect is a common read-out in antiviral testing.

Data set [5] in a line: Cytotoxicity against human PM1 cells expressing CCR5 by MTT assay in presence of 5 uM of chloroquine. It is filed as cell-based.
Data set [6] relates to Human immunodeficiency virus 1. The data set is described as follows: Antiviral activity against T-cell line-tropic HIV1 NL4-3 infected in human MT4 cells assessed as inhibition of virus-induced cytopathogenicity after 5 days by MTT assay. In kind it is functional, organism-based. To be noted: Human immunodeficiency virus 1, NL4-3, MT4, 120 h.

Usually CC50 stands for the concentration at which the toxic effect on the cells reaches its halfway point. A word on the EC50: it is the midpoint of the concentration-response curve. As for `CC[C@H](C)[C@H](NC(=O)[C@@H](NC(=O)[C@H](CC(N)=O)NC(=O)[C@H](Cc1ccc(O)cc1)NC(=O)[C@H](CC(C)C)NC(=O)[C@H](CO)NC(=O)[C@H](CCCNC(=N)N)NC(C)=O)[C@@H](C)O)C(=O)N[C@@H](C)C(=O)N[C@H](C(=O)N[C@@H](CC(C)C)C(=O)N[C@@H](Cc1ccc(O)cc1)C(=O)N[C@@H](CO)C(=O)N[C@H](C(=O)N[C@@H](Cc1cnc[nH]1)C(=O)N[C@@H](CCC(N)=O)C(=O)NCC(=O)N[C@@H](CSCC(=O)N[C@@H](CCCNC(=N)N)C(=O)N[C@@H](CCCN)C(=O)N[C@@H](CCCNC(=N)N)C(=O)N[C@@H](CCCN)C(=O)N[C@@H](CCCNC(=N)N)C(=O)N[C@@H](CCCN)C(=O)N[C@@H](CCCNC(=N)N)C(=O)N[C@@H](CCCN)C(N)=O)C(N)=O)C(C)C)C(C)C` (I: Ac-RSLYNTIAVLYSVHQGC-NH2 / II: R[Orn]R[Orn]R[Orn]R[Orn]-NH2; linker I:17-II:N via X1), the CC50 in data set [1] turned out to be 9.2 µM; in data set [2], 9.2 µM; in data set [5] it was 8.2 µM. The figures for the EC50 in data set [3], in data set [4] and in data set [6] were 0.85 µM, 1.3 µM and 5.2 µM, respectively.
Regarding `CC[C@H](C)[C@H](NC(=O)[C@@H](NC(=O)[C@H](CC(N)=O)NC(=O)[C@H](Cc1ccc(O)cc1)NC(=O)[C@H](CC(C)C)NC(=O)[C@H](CO)NC(=O)[C@H](CCCNC(=N)N)NC(=O)[C@H](CC(C)C)NC(=O)[C@H](CCC(=O)O)NC(C)=O)[C@@H](C)O)C(=O)N[C@@H](C)C(=O)N[C@H](C(=O)N[C@@H](CC(C)C)C(=O)N[C@@H](Cc1ccc(O)cc1)C(=O)N[C@@H](CO)C(=O)N[C@H](C(=O)NCC(=O)N[C@@H](CSCC(=O)N[C@@H](CCCNC(=N)N)C(=O)N[C@@H](CCCN)C(=O)N[C@@H](CCCNC(=N)N)C(=O)N[C@@H](CCCN)C(=O)N[C@@H](CCCNC(=N)N)C(=O)N[C@@H](CCCN)C(=O)N[C@@H](CCCNC(=N)N)C(=O)N[C@@H](CCCN)C(N)=O)C(N)=O)C(C)C)C(C)C`, the figures for the cytotoxic concentration (CC50) in data set [1], in data set [2] and in data set [5] were 7.7 µM, 8.1 µM and 8.4 µM, respectively. For the same molecule, the EC50 in data set [3] is 4.5 µM; in data set [4] it was 2.3 µM; in data set [6], greater than 7.7 µM.
As to `CC[C@H](C)[C@H](NC(=O)[C@@H](NC(=O)[C@H](CC(N)=O)NC(=O)[C@H](Cc1ccc(O)cc1)NC(=O)[C@H](CC(C)C)NC(=O)[C@H](CO)NC(C)=O)[C@@H](C)O)C(=O)N[C@@H](C)C(=O)N[C@H](C(=O)N[C@@H](CC(C)C)C(=O)N[C@@H](Cc1ccc(O)cc1)C(=O)N[C@@H](CO)C(=O)N[C@H](C(=O)N[C@@H](Cc1c[nH]cn1)C(=O)N[C@@H](CCC(N)=O)C(=O)N[C@@H](CCCNC(=N)N)C(=O)NCC(=O)N[C@@H](CSCC(=O)N[C@@H](CCCNC(=N)N)C(=O)N[C@@H](CCCN)C(=O)N[C@@H](CCCNC(=N)N)C(=O)N[C@@H](CCCN)C(=O)N[C@@H](CCCNC(=N)N)C(=O)N[C@@H](CCCN)C(=O)N[C@@H](CCCNC(=N)N)C(=O)N[C@@H](CCCN)C(N)=O)C(N)=O)C(C)C)C(C)C` (I: Ac-SLYNTIAVLYSVHQRGC-NH2 / II: R[Orn]R[Orn]R[Orn]R[Orn]-NH2; linker I:17-II:N via X1), the results for the CC50 in data set [1], in data set [2] and in data set [5] were 4.8 µM, 4.4 µM and 4.6 µM, respectively. For the same molecule, the EC50 in data set [3] was 1 µM; in data set [4], greater than 4.6 µM; in data set [6], greater than 4.8 µM.
Turning to `CC[C@H](C)[C@H](NC(=O)[C@@H](NC(=O)[C@H](CC(N)=O)NC(=O)[C@H](Cc1ccc(O)cc1)NC(=O)[C@H](CC(C)C)NC(=O)[C@H](CO)NC(=O)[C@H](CCCNC(=N)N)NC(=O)[C@H](CC(C)C)NC(C)=O)[C@@H](C)O)C(=O)N[C@@H](C)C(=O)N[C@H](C(=O)N[C@@H](CC(C)C)C(=O)N[C@@H](Cc1ccc(O)cc1)C(=O)N[C@@H](CO)C(=O)N[C@H](C(=O)N[C@@H](Cc1c[nH]cn1)C(=O)NCC(=O)N[C@@H](CSCC(=O)N[C@@H](CCCNC(=N)N)C(=O)N[C@@H](CCCN)C(=O)N[C@@H](CCCNC(=N)N)C(=O)N[C@@H](CCCN)C(=O)N[C@@H](CCCNC(=N)N)C(=O)N[C@@H](CCCN)C(=O)N[C@@H](CCCNC(=N)N)C(=O)N[C@@H](CCCN)C(N)=O)C(N)=O)C(C)C)C(C)C`, the CC50 is 8.5 µM in data set [1], 10 µM in data set [2] and 5.2 µM in data set [5]. For the same molecule, the EC50 was 4.6 µM in data set [3], greater than 5.2 µM in data set [4] and greater than 8.5 µM in data set [6].
As for `CC[C@H](C)[C@H](NC(=O)[C@H](CCCNC(=N)N)NC(=O)[C@H](CCC(N)=O)NC(=O)[C@H](Cc1c[nH]cn1)NC(=O)[C@@H](NC(=O)[C@H](CO)NC(=O)[C@H](Cc1ccc(O)cc1)NC(=O)[C@H](CC(C)C)NC(=O)[C@@H](NC(=O)[C@H](C)NC(=O)[C@@H](NC(=O)[C@@H](NC(=O)[C@H](CC(N)=O)NC(C)=O)[C@@H](C)O)[C@@H](C)CC)C(C)C)C(C)C)C(=O)N[C@@H](CC(=O)O)C(=O)N[C@H](C(=O)NCC(=O)N[C@@H](CSCC(=O)N[C@@H](CCCNC(=N)N)C(=O)N[C@@H](CCCN)C(=O)N[C@@H](CCCNC(=N)N)C(=O)N[C@@H](CCCN)C(=O)N[C@@H](CCCNC(=N)N)C(=O)N[C@@H](CCCN)C(=O)N[C@@H](CCCNC(=N)N)C(=O)N[C@@H](CCCN)C(N)=O)C(=O)O)C(C)C` (I: Ac-NTIAVLYSVHQRIDVGC-OH / II: R[Orn]R[Orn]R[Orn]R[Orn]-NH2; linker I:17-II:N via X1), the CC50 in data set [1] was 18 µM; in data set [2] it was 18 µM; in data set [5], 17 µM. Besides, the 50% effective concentration (EC50) in data set [3] was 2 µM; in data set [4], 5.6 µM; in data set [6] it was greater than 18 µM.
In the case of `CC[C@H](C)[C@H](NC(=O)[C@H](CCCCN)NC(=O)[C@@H](NC(=O)[C@H](CCC(N)=O)NC(=O)[C@H](CCCNC(=N)N)NC(=O)[C@H](C)NC(=O)[C@H](Cc1c[nH]cn1)NC(C)=O)[C@@H](C)O)C(=O)N[C@@H](Cc1ccc(O)cc1)C(=O)N[C@H](C(=O)N[C@H](C(=O)N[C@@H](CC(=O)O)C(=O)N[C@H](C(=O)N[C@@H](CC(C)C)C(=O)N[C@@H](CO)C(=O)N[C@H](C(=O)NCC(=O)N[C@@H](CSCC(=O)N[C@@H](CCCNC(=N)N)C(=O)N[C@@H](CCCN)C(=O)N[C@@H](CCCNC(=N)N)C(=O)N[C@@H](CCCN)C(=O)N[C@@H](CCCNC(=N)N)C(=O)N[C@@H](CCCN)C(=O)N[C@@H](CCCNC(=N)N)C(=O)N[C@@H](CCCN)C(N)=O)C(N)=O)C(C)C)C(C)C)C(C)C)[C@@H](C)CC` (I: Ac-HARQTKIYIVDVLSVGC-NH2 / II: R[Orn]R[Orn]R[Orn]R[Orn]-NH2; linker I:17-II:N via X1), the values for the CC50 in data set [1], in data set [2] and in data set [5] were 8.2 µM, 8.2 µM and 8.7 µM, respectively. Moreover, the EC50 in data set [3] is greater than 8.2 µM; in data set [4], greater than 8.7 µM; in data set [6], greater than 8.2 µM.
